Test results taken from ChEMBL document CHEMBL4680249, “Discovery of new LXRβ agonists as glioblastoma inhibitors” (Eur J Med Chem, 2020).
Calls of active or inactive are those of the source. No cut-off for these calls is given here.

Columns and labels:
[1] = target: Retinoic acid receptor RXR-alpha/oxysterols receptor LXR-beta (Homo sapiens, UniProt P55055)
Description: Agonist activity at human RXRalpha/LXRbeta expressed in HEK293 cells measured after 20 hrs by dual luciferase reporter gene assay

U-87 MG [2] = test: Antiproliferative activity against human U87 cells overexpressing EGFR variant III measured after 7 days by CCK8 assay; assay type: functional, cell-based, U-87MG ATCC
[3] = target: Retinoic acid receptor RXR-alpha/oxysterols receptor LXR-alpha (Homo sapiens, UniProt Q13133)
Description: Agonist activity at human RXRalpha/LXRalpha expressed in HEK293 cells measured after 20 hrs by dual luciferase reporter gene assay

[4] = Effect on serum triglyceride level in Balb/c nu/nu mouse xenografted with human U87 cells overexpressing EGFR variant III at 50 mg/kg/day, ip for 15 days; assay type: ADME, organism-based; conditions: in vivo, 360 h, time 15 day
[5] = Toxicity in Balb/c nu/nu mouse xenografted with human U87 cells overexpressing EGFR variant III assessed as body weight loss at 50 mg/kg/day, ip for 15 days; assay type: organism-based; conditions: in vivo, 360 h, time 15 day
U-87 MG [6] = test: Antitumor activity against human U87 cells overexpressing EGFR variant III xenografted in Balb/c nu/nu mouse assessed as reduction in tumor size at 50 mg/kg/day, ip for 15 days by caliper method; assay type: functional, organism-based; conditions: U-87MG ATCC, time 15.0 day
[7] = AUC (0 to t) in Sprague-Dawley rat at 10 mg/kg, iv measured after 24 hrs by LC-MS/MS analysis; assay type: ADME, organism-based; parameters: route intravenous, time 24 hrs, dose 10 mg/kg; conditions: in vivo
[8] = MRT (infinity) in Sprague-Dawley rat at 10 mg/kg, iv measured after 24 hrs by LC-MS/MS analysis; assay type: ADME, organism-based; conditions: in vivo
[9] = Tmax in Sprague-Dawley rat at 10 mg/kg, iv measured after 24 hrs by LC-MS/MS analysis; assay type: ADME, organism-based; conditions: in vivo
[10] = Cmax in Sprague-Dawley rat at 10 mg/kg, iv measured after 24 hrs by LC-MS/MS analysis; assay type: ADME, organism-based; parameters: route intravenous, time 24 hrs, dose 10 mg/kg; conditions: in vivo
[11] = AUC (0 to infinity) in Sprague-Dawley rat at 10 mg/kg, iv measured after 24 hrs by LC-MS/MS analysis; assay type: ADME, organism-based; parameters: route intravenous, dose 10 mg/kg, time 24 hrs; conditions: in vivo
[12] = Half life in Sprague-Dawley rat at 10 mg/kg, iv measured after 24 hrs by LC-MS/MS analysis; assay type: ADME, organism-based; conditions: in vivo
U87 [13] = test: Agonist activity at LXR in human U87 cells overexpressing EGFR variant III assessed as up regulation of ABCA1 mRNA expression measured after 48 hrs by SYBR green staining based qRT-PCR analysis; assay type: cell-based; conditions: filed as agonist
U-87 MG [14] = test: Antiproliferative activity against LXRbeta knock-down human U87 cells overexpressing EGFR variant III measured after 7 days by CCK8 assay; assay type: functional, cell-based; conditions: U-87MG ATCC, time 7.0 day
U87 [15] = test: Agonist activity at LXR in human U87 cells overexpressing EGFR variant III assessed as up regulation of ABCG1 mRNA expression measured after 48 hrs by SYBR green staining based qRT-PCR analysis; assay type: cell-based; conditions: filed as agonist
U87 [16] = test: Agonist activity at LXR in human U87 cells overexpressing EGFR variant III assessed as up regulation of SREBP1c mRNA expression measured after 48 hrs by SYBR green staining based qRT-PCR analysis; assay type: cell-based; conditions: filed as agonist
U-251 = test: Antiproliferative activity against human U-251 cells measured after 7 days by CCK8 assay; conditions: U-251, 168 h
U87 [17] = test: Agonist activity at LXR in human U87 cells overexpressing EGFR variant III assessed as up regulation of IDOL mRNA expression measured after 48 hrs by SYBR green staining based qRT-PCR analysis; assay type: cell-based; conditions: filed as agonist
A 172 = test: Antiproliferative activity against human A 172 cells measured after 7 days by CCK8 assay; conditions: A 172, 168 h
U87 [18] = test: Agonist activity at LXR in human U87 cells overexpressing EGFR variant III assessed as up regulation of APOE mRNA expression measured after 48 hrs by SYBR green staining based qRT-PCR analysis; assay type: cell-based; conditions: filed as agonist
[19] = Cytotoxicity against human HA1800 cells measured after 7 days by CCK8 assay; assay type: cell-based; conditions: ha1800, 168 h, time 7 day
HEK-293T = test: Cytotoxicity against HEK293T cells measured after 7 days by CCK8 assay; assay type: cell-based; conditions: human, 168 h, time 7 day
[20] = Homo sapiens, U-87 MG, 168 h, read-out: IC50

Chain of Retinoic acid receptor RXR-alpha/oxysterols receptor LXR-alpha (P19793 whole entry): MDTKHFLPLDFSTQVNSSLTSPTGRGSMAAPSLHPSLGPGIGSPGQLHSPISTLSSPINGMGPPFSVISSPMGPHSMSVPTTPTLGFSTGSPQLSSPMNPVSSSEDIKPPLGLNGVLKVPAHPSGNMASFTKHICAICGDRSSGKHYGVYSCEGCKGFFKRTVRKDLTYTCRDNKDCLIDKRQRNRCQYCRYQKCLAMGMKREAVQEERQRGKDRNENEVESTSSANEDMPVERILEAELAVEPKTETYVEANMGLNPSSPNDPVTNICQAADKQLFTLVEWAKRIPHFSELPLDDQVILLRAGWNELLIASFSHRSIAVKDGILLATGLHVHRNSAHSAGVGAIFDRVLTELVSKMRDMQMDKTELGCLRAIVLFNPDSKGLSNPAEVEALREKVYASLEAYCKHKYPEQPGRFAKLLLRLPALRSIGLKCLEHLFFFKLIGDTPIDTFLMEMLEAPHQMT
Chain of Retinoic acid receptor RXR-alpha/oxysterols receptor LXR-alpha (Q13133 whole entry): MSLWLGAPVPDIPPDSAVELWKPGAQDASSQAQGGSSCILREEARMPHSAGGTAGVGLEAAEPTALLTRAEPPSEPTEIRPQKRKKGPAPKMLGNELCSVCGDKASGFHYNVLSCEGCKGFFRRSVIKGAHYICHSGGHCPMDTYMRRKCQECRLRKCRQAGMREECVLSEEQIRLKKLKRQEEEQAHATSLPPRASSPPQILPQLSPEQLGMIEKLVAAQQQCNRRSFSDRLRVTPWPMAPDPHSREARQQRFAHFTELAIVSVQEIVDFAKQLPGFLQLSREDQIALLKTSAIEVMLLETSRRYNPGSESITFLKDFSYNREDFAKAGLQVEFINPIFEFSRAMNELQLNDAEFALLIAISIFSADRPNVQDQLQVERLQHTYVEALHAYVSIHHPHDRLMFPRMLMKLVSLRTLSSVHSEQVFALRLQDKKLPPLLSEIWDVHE
Chain of Retinoic acid receptor RXR-alpha/oxysterols receptor LXR-beta (P19793 whole entry): as the sequence (P19793 whole entry) above
Chain of Retinoic acid receptor RXR-alpha/oxysterols receptor LXR-beta (P55055 whole entry): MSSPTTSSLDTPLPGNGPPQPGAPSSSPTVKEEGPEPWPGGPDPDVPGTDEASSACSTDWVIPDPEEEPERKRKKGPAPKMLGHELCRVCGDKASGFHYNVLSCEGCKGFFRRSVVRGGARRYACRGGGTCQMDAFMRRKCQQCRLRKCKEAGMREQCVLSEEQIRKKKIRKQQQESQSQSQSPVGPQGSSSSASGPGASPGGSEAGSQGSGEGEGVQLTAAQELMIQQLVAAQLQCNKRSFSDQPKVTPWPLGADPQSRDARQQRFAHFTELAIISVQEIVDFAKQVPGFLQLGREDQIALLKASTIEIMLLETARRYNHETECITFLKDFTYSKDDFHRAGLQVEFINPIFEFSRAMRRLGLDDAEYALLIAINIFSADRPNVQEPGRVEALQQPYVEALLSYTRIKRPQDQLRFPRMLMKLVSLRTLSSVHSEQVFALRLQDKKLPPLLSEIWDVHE

`O=C(O)Cc1cccc(OCCCN(Cc2cccc(C(F)(F)F)c2Cl)CC(c2ccccc2)c2ccccc2)c1` gave an EC50 [1] of 0.000228 µM, an IC50 (U-87 MG [2]; [20]) of 3.65 µM and an EC50 [3] of 0.000401 µM. The Activity [4] was “Toxic”.
`CC(C)(C)OC(=O)N1CC[C@]2(C(=O)Nc3ccccc32)[C@H]1c1cccc(-c2ccc(CO)c(S(C)(=O)=O)c2)c1` showed an IC50 (U-87 MG [2]; [20]) of 6.36 µM.
In the case of `CC(C)(C)OC(=O)N1CC[C@@]2(C(=O)Nc3ccccc32)[C@@H]1c1cccc(Nc2ccc(CO)c(S(C)(=O)=O)c2)c1`, the IC50 (U-87 MG [2]; u-87mg atcc) is reported as “Not Active”.
With `CC(C)(C)OC(=O)N1CCC2(C(=O)Nc3ccccc32)C1c1cccc(Nc2ccc(CO)c(S(C)(=O)=O)c2)c1` (racemic) the Activity [5] was “Non-Toxic”, the Activity (U-87 MG [6]) was “Active” and the AUC(0-t) at 24 h [7] was 1250 ng·h/mL. The IC50 (U-87 MG [2]; [20]) was 3.75 µM, the MRT inf [8] was 3.48 h and the Tmax [9] was 0.22 h. The Cmax [10] was 1010 ng/mL, the AUC(0-inf) [11] was 1410 ng·h/mL and the Activity [4] was “Non-Toxic”. The half-life [12] was 2.98 h.
`CC(C)(C)OC(=O)N1CCC2(C(=O)Nc3ccccc32)C1c1cccc(-c2ccc(CO)c(S(C)(=O)=O)c2)c1` (centres undefined) showed an IC50 (U-87 MG [2]; [20]) of 7.05 µM.
In the case of `CN(C)C(=O)c1ccc(-c2cccc([C@H]3N(C(=O)OC(C)(C)C)CC[C@]34C(=O)Nc3ccccc34)c2)cc1Cl`, the IC50 (U-87 MG [2]; u-87mg atcc) is reported as “Not Active”.
In the case of `CC(C)(C)CC(=O)N1CCC2(C(=O)Nc3ccccc32)C1c1cccc(-c2ccc(CO)c(S(C)(=O)=O)c2)c1` (centres undefined), the IC50 (U-87 MG [2]; u-87mg atcc) is reported as “Not Active”.
For `COC(=O)c1ccc(-c2cccc([C@H]3N(C(=O)OC(C)(C)C)CC[C@]34C(=O)Nc3ccccc34)c2)cc1S(C)(=O)=O`, the IC50 (U-87 MG [2]; [20]) was 7.53 µM.
In the case of `CC(C)(C)OC(=O)N1CC[C@@]2(C(=O)Nc3ccccc32)[C@@H]1c1cccc(-c2cc(F)c(CO)c(S(C)(=O)=O)c2)c1`, the IC50 (U-87 MG [2]; u-87mg atcc) is reported as “Not Active”.
In the case of `CC(C)(C)OC(=O)N1CCC2(C(=O)Nc3ccccc32)C1c1cccc(-c2ccccc2)c1` (centres undefined), the IC50 (U-87 MG [2]; [20]) is reported as 22.6 µM.
With `CC(C)(C)OC(=O)N1CC[C@]2(C(=O)Nc3ccccc32)[C@H]1c1cccc(-c2ccc(CO)cc2)c1` the IC50 (U-87 MG [2]; u-87mg atcc) was “Not Active”.
In the case of `CC(C)(C)OC(=O)N1CC[C@]2(C(=O)Nc3ccccc32)[C@H]1c1cccc(-c2cccc(S(C)(=O)=O)c2)c1`, the IC50 (U-87 MG [2]; u-87mg atcc) is reported as “Not Active”.
For `CC(C)(C)OC(=O)N1CC[C@]2(C(=O)Nc3ccccc32)[C@H]1c1cccc(Nc2ccc(CO)c(S(C)(=O)=O)c2)c1`, the Activity (U87 [13]) was “Dose-dependent effect”, the Activity (U-87 MG [14]) was “inactive” and the Activity (U87 [15]) was “Dose-dependent effect”. The Activity (U87 [16]) was “Dose-dependent effect”, the IC50 (U-87 MG [2]; [20]) was 1.78 µM and the IC50 (U-251) was 2.23 µM. For the same compound, the Activity (U87 [17]) was “Dose-dependent effect”, the IC50 (A 172) was 6.03 µM and the Activity (U87 [18]) was “Dose-dependent effect”. For the same compound, the Activity [19] was “Non-Toxic” and the Activity (HEK-293T) was “Non-Toxic”.
For `CC(C)(C)OC(=O)N1CC[C@@]2(C(=O)Nc3ccccc32)[C@@H]1c1cccc(-c2ccc(CO)c(S(C)(=O)=O)c2)c1`, the IC50 (U-87 MG [2]; u-87mg atcc) was “Not Active”.
With `CC(C)(C)OC(=O)N1CC[C@@]2(C(=O)Nc3ccccc32)[C@@H]1c1cccc(-c2ccccc2)c1` the IC50 (U-87 MG [2]; u-87mg atcc) was “Not Active”.
For `CC(C)(C)CC(=O)N1CC[C@]2(C(=O)Nc3ccccc32)[C@H]1c1cccc(-c2ccc(CO)c(S(C)(=O)=O)c2)c1`, the IC50 (U-87 MG [2]; u-87mg atcc) was “Not Active”.
`CC(C)(C)OC(=O)N1CCC2(C(=O)Nc3ccccc32)C1c1cccc(-c2cc(F)c(CO)c(S(C)(=O)=O)c2)c1` (centres undefined) showed an IC50 (U-87 MG [2]; [20]) of 8.49 µM.
For `COC(=O)c1ccc(-c2cccc(C3N(C(=O)OC(C)(C)C)CCC34C(=O)Nc3ccccc34)c2)cc1S(C)(=O)=O` (centres undefined), the IC50 (U-87 MG [2]; [20]) was 13.3 µM.
For `COC(=O)c1ccc(-c2cccc([C@@H]3N(C(=O)OC(C)(C)C)CC[C@@]34C(=O)Nc3ccccc34)c2)cc1S(C)(=O)=O`, the IC50 (U-87 MG [2]; u-87mg atcc) was “Not Active”.
In the case of `CC(C)(C)CC(=O)N1CC[C@@]2(C(=O)Nc3ccccc32)[C@@H]1c1cccc(-c2ccc(CO)c(S(C)(=O)=O)c2)c1`, the IC50 (U-87 MG [2]; u-87mg atcc) is reported as “Not Active”.
In the case of `CC(C)(C)OC(=O)N1CC[C@]2(C(=O)Nc3ccccc32)[C@H]1c1cccc(-c2cc(F)c(CO)c(S(C)(=O)=O)c2)c1`, the IC50 (U-87 MG [2]; [20]) is reported as 7.78 µM.
For `Fc1ccc(-c2c3cccc(C(F)(F)F)c3nn2Cc2ccc(F)cc2Cl)cc1` [LXR-623], the EC50 [1] was 0.000212 µM, the IC50 (U-87 MG [2]; [20]) was 6.14 µM and the IC50 (U-251) was 3.06 µM. The IC50 (A 172) was 8.3 µM, the EC50 [3] was 0.000431 µM and the Activity [4] was “Toxic”.
